pIC50: −log10 of the molar value. Where two headings read alike, the source gives them in different places. A value given as a limit tells only on which side of the number the result lay.

Assay [1] deals with TNF-α production by LPS-activated THP1 cells. The assay can be described thus: Lipopolysaccharide-activated THP1 cell TNF production assay. It counts as cell-based. As to conditions: Homo sapiens, read-out: IC50 in THP-1 cellular TNF production assay. The protocol:
Lipopolysaccharide-Activated THP1 Cell TNF Production Assay
THP1 cells were resuspended in fresh THP1 media (RPMI 1640, 10% heat-inactivated FBS, 1×PGS, 1×NEAA, plus 30 μM βME) at a concentration of 1.5×10^6 cells per mL. One hundred microliters of cells per well were plated in a polystyrene 96-well tissue culture plate. 1.5 micrograms per mL of bacterial LPS was prepared in THP1 media and transferred to the first 11 columns of a 96-well polypropylene plate. Column 12 contained only THP1 media for the LO control. Compounds were dissolved in 100% DMSO and serially diluted 3 fold in a polypropylene 96-well microtiter plate (drug plate). Columns 6 and 12 were reserved as controls (HI controls and LO controls respectively) and contained only DMSO. 10 μL of LPS followed by one microliter of inhibitor compound from the drug plate was transferred to the cell plate. The treated cells were induced to synthesize and secrete TNF-α in a 37° C. humidified incubator with 5% CO2 for 3 hours. Fifty microliters of conditioned media was transferred to a 96-well MULTI-ARRAY™ 96-well small spot plate—custom coated with MAB610 containing 100 μL of 2× Read Buffer P supplemented with 0.34 nM AF210NA polyclonal Ab labeled with ruthenium (MSD—Sulfo-TAG™—NHS ester). After an overnight incubation at room temperature with shaking, the reaction was read on the Sector Imager™ 6000. […] The amount of secreted TNF-α in the presence of test compounds compared with that in the presence of DMSO vehicle alone (HI control) was calculated using the formula: % control (POC)=(cpd−average LO)/(average HI−averageLO)*100. Data (consisting of POC and inhibitor concentration in μM) was fitted to a 4-parameter equation (y=A+((B−A)/(1+((x/C)^D))), where A is the minimum y (POC) value, B is the maximum y (POC), C is the x (cpd concentration) at the point of inflection and D is the slope factor) using a Levenburg-Marquardt non-linear regression algorithm.

The subject of assay [2] is production of IL-1β, IL-6, and TNF-α by PBMC activated with LPS. The assay can be described thus: Lipopolysaccharide-activated PBMC cytokine production assay. The format is cell-based. As to conditions: Homo sapiens, read-out: IC50 in PBMC cytokine production assay. Here is the method: Lipopolysaccharide-Activated Pbmc Cytokine Production Assay
Test compounds were evaluated in vitro for the ability to inhibit the production of IL-1β, IL-6, and TNF-α by PBMC activated with bacterial lipopolysaccharide (LPS). Fresh leukocytes were obtained from a local blood bank, and peripheral blood mononuclear cells (PBMCs) were isolated by density gradient centrifugation on Ficol-Paque Plus (Pharmacia).
Preparation of Test Compound Stock Solutions
All reagents were prepared in RPMI 1640+10% v/v human AB serum+1× Pens/Strep/Glu (assay medium). Test compounds were dissolved in 100% DMSO and serially diluted in 96-well polypropylene round bottom micro titer plates (drug plate). Serial dilutions were then diluted 1:250 into assay medium to a 4× working concentration. Compound serial dilutions were half-log, 10 point titrations with a final starting concentration of 1 μM.
Treatment of Cells with Test Compounds and Activation with Lipopolysaccharide
LPS was prepared to a 4× concentration in assay medium. 100 μl of PBMC (1×10^6 cells/ml) were plated in a 96-well polystyrene flat bottom micro titer tissue culture plate and incubated with 50 μl of 4× compound serial dilution for 1 hour at 37° C., 5% CO2 in a tissue culture incubator. 50 μl 4×LPS or control was added and the plates were incubated at 37° C., 5% CO2 in a tissue culture incubator for 18 hours. The final DMSO concentration was 0.1%. The total volume was 200 μL. The final LPS concentration was 100 ng/mL. After 18 hours culture supernatants were removed and IL-1β, IL-6, and TNF-α presence in the supernatants was quantified using MSD ECL based technology.
20 μL of culture supernatant were added to MSD plates, and incubated for one hour at room temperature. 20 μL of detection antibody diluted in antibody diluent (1 μg/mL), and 110 μL of 2× Read Buffer P was added, and incubated for one hour at RT. Electrochemiluminescence was measured using the SECTOR HTS Imager (MSD, Gaithersburg, Md.).
Compound IC50 values were calculated as follows: The proportion of cytokine production in the presence of compound compared to the cytokine production in the presence of the DMSO vehicle alone (Hi control) was calculated using the formula: Percent Control (POC)=(compound−average Lo)/(average Hi−average Lo)*100.

The target of another assay is recombinant human p38α (Homo sapiens, UniProt Q16539). The assay can be described thus: Purified and activated recombinant human p38α HTRF assay. The format is biochemical. As to conditions: 1 nM p38α, 50 μM ATP, GST-ATF2 substrate, read-out: p38a IC50. Here is the method:
Purified and Activated Recombinant Human p38α Assay Kinase Reaction Buffer: […] HTRF Detection Buffer: […] Serial Dilution of Compounds: […] Columns 6 and 12 (HI controls and LO controls respectively) in the drug plate were reserved as controls and contained only DMSO. Kinase Reaction: […] See table below for actual concentrations. In the absence of substrate, the background was measured as LO control. […] Assay Reagent Concentrations: […] HTRF Detection: […] After 60 minutes incubation at room temperature, the assay plate was read in a Discovery Plate Reader. The wells were excited with coherent 320 nm light and the ratio of delayed ([…] post excitation) emissions at […] (native europium fluorescence) and 665 nm (europium fluorescence transferred to allophycocyanin-an index of substrate phosphorylation) was determined (Park et al, 1999). Data Analysis: […] Data (consisting of POC and inhibitor concentration in μM) was fitted to a 4-parameter equation ([…]))), where A is the minimum y (POC) value, B is the maximum y (POC), C is the x (compound concentration) at the point of inflection and D is the slope factor, using a Levenburg-Marquardt non-linear regression algorithm. The inhibition constant (Ki) of the inhibitor was estimated from the IC50 (compound concentration at the point of inflection C) using the Cheng-Prussof equation: […] All results were expressed as the mean±the standard error of the mean. Data acquisition and non-linear regression algorithms were performed using Activity Base v5.2 and XL-fit software v4.1 respectively. All data was archived using Activity Base v5.2 software.
(In TR-FRET formats the signal depends on donor and acceptor labels being close together.)

The mark [3] stands for this setting: THP-1, THP1 cells, LPS, 3 hours.

Chain of recombinant human p38α (Q16539 whole entry): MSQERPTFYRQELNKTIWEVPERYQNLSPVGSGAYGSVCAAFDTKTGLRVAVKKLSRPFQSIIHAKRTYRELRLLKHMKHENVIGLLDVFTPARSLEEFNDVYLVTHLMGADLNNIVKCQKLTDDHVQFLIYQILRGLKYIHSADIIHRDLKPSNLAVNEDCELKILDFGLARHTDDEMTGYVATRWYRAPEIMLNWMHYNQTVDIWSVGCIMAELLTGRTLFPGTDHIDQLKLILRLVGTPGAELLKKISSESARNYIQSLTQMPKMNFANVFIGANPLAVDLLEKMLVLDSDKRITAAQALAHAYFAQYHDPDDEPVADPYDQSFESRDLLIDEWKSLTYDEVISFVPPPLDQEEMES

A word on the pIC50: it is −log10 of the IC50, conventionally taken in molar units. As to `Cc1ccc(C(N)=O)cc1-c1cc2cnnc(-c3ccc(F)cc3F)c2n(C)c1=O` [Example 2, 3-(8-(2,4-difluorophenyl)-1-methyl-2-oxo-1,2-dihydropyrido[3,2-d]pyridazin-3-yl)-4-methylbenzamide], the negative logarithm of the IC50 (pIC50) was at least 6.00 in assay [1] (THP-1, 3 h); at least 6.00 in assay [2] (18 h); 8.52 at recombinant human p38α.
On to `Cn1c(=O)c(-c2cc(C(=O)NC3CC3)ccc2Cl)cc2cnnc(-c3ccc(F)cc3F)c21` [Example 5, 4-chloro-N-cyclopropyl-3-(8-(2,4-difluorophenyl)-1-methyl-2-oxo-1,2-dihydropyrido[3,2-d]pyridazin-3-yl)benzamide], for which the negative logarithm of the IC50 (pIC50) was at least 6.00 in assay [1] (THP-1, 3 h); at least 6.00 in assay [2] (18 h); 8.80 on recombinant human p38α.
For `Cc1ccc(C(=O)NC2CC2)cc1-c1cc2cnnc(-c3ccccc3C)c2n(C)c1=O` [Example 6, N-cyclopropyl-4-methyl-3-(1-methyl-2-oxo-8-o-tolyl-1,2-dihydropyrido[3,2-d]pyridazin-3-yl)benzamide], the pIC50 in assay [1] (THP-1, 3 h) was at least 6.00; in assay [2] (18 h), at least 6.00; at recombinant human p38α, 7.94.
Regarding `Cc1ccccc1-c1nncc2cc(-c3cc(C(=O)NC4CC4)cc(F)c3C)c(=O)n(C)c12` [Example 7, N-cyclopropyl-3-fluoro-4-methyl-5-(1-methyl-2-oxo-8-o-tolyl-1,2-dihydropyrido[3,2-d]pyridazin-3-yl)benzamide], the negative-log IC50 (pIC50) in assay [1] (THP-1, 3 h) was at least 6.00; in assay [2] (18 h), at least 6.00; at recombinant human p38α, 8.82.
Consider `Cc1ccc(C(=O)NC2CC2)cc1-c1cc2cnnc(-c3ccccc3Cl)c2n(C)c1=O` [Example 8, 3-(8-(2-chlorophenyl)-1-methyl-2-oxo-1,2-dihydropyrido[3,2-d]pyridazin-3-yl)-N-cyclopropyl-4-methylbenzamide], for which the pIC50 was at least 6.00 in assay [1] (THP-1, 3 h); at least 6.00 in assay [2] (18 h); 8.80 on recombinant human p38α.
`Cc1ccc(C(=O)NC2CC2)cc1-c1cc2cnnc(-c3ccc(C(F)(F)F)cc3F)c2n(C)c1=O` [Example 9, N-cyclopropyl-3-(8-(2-fluoro-4-(trifluoromethyl)phenyl)-1-methyl-2-oxo-1,2-dihydropyrido[3,2-d]pyridazin-3-yl)-4-methylbenzamide]: the pIC50 is at least 6.00 in assay [1] (setting [3]); at least 6.00 in assay [2] (LPS 100 ng/mL, 18 hours); 8.70 on recombinant human p38α.
Consider `Cc1ccc(C(=O)NC2CC2)cc1-c1cc2cnnc(-c3ccccc3C(F)(F)F)c2n(C)c1=O` [Example 10, N-cyclopropyl-4-methyl-3-(1-methyl-2-oxo-8-(2-(trifluoromethyl)phenyl)-1,2-dihydropyrido[3,2-d]pyridazin-3-yl)benzamide], for which the pIC50 is at least 6.00 in assay [1] (setting [3]); at least 6.00 in assay [2] (LPS 100 ng/mL, 18 hours); 8.54 at recombinant human p38α.
For `Cc1c(F)cc(C(=O)NC2CC2)cc1-c1cc2cnnc(-c3ccccc3C(F)(F)F)c2n(C)c1=O` [Example 11, N-cyclopropyl-3-fluoro-4-methyl-5-(1-methyl-2-oxo-8-(2-(trifluoromethyl)phenyl)-1,2-dihydropyrido[3,2-d]pyridazin-3-yl)benzamide], the pIC50 was at least 6.00 in assay [1] (setting [3]); at least 6.00 in assay [2] (LPS 100 ng/mL, 18 hours); 8.62 on recombinant human p38α.
Turning to `Cc1ccc(C(=O)NC2CC2)cc1-c1cc2cnnc(-c3ccc(F)cc3C)c2n(C)c1=O` [Example 12, N-cyclopropyl-3-(8-(4-fluoro-2-methylphenyl)-1-methyl-2-oxo-1,2-dihydropyrido[3,2-d]pyridazin-3-yl)-4-methylbenzamide], the pIC50 was at least 6.00 in assay [1] (setting [3]); at least 6.00 in assay [2] (LPS 100 ng/mL, 18 hours); 8.60 at recombinant human p38α.
As to `Cc1ccc(C(=O)NC2CC2)cc1-c1cc2cnnc(-c3ccc(F)cc3Cl)c2n(C)c1=O` [Example 13, N-cyclopropyl-3-(8-(2-chloro-4-fluorophenyl)-1-methyl-2-oxo-1,2-dihydropyrido[3,2-d]pyridazin-3-yl)-4-methylbenzamide], the negative-log IC50 (pIC50) in assay [1] (setting [3]) is at least 6.00; in assay [2] (LPS 100 ng/mL, 18 hours) it was at least 6.00; on recombinant human p38α, 8.55.
Regarding `Cc1cc(F)ccc1-c1nncc2cc(-c3cc(C(=O)NC4CC4)cc(F)c3C)c(=O)n(C)c12` [Example 16, N-cyclopropyl-3-fluoro-5-(8-(4-fluoro-2-methylphenyl)-1-methyl-2-oxo-1,2-dihydropyrido[2,3-d]pyridazin-3-yl)-4-methylbenzamide], the negative-log IC50 (pIC50) was at least 6.00 in assay [1] (setting [3]); at least 6.00 in assay [2] (LPS 100 ng/mL, 18 hours); 8.52 on recombinant human p38α.
For the molecule `Cc1c(F)cc(C(=O)NC2CC2)cc1-c1cc2cnnc(-c3ccc(F)cc3Cl)c2n(C)c1=O` [Example 17, 3-(8-(2-chloro-4-fluorophenyl)-1-methyl-2-oxo-1,2-dihydropyrido[2,3-d]pyridazin-3-yl)-N-cyclopropyl-5-fluoro-4-methylbenzamide], the negative-log IC50 (pIC50) in assay [1] (setting [3]) was at least 6.00; in assay [2] (LPS 100 ng/mL, 18 hours), at least 6.00; on recombinant human p38α it was 8.74.
For `Cc1c(F)cc(C(=O)NC2CC2)cc1-c1cc2cnnc(-c3cc(F)ccc3Cl)c2n(C)c1=O` [Example 19, 3-(8-(2-chloro-5-fluorophenyl)-1-methyl-2-oxo-1,2-dihydropyrido[2,3-d]pyridazin-3-yl)-N-cyclopropyl-5-fluoro-4-methylbenzamide], the negative-log IC50 (pIC50) in assay [1] (setting [3]) was at least 6.00; in assay [2] (LPS 100 ng/mL, 18 hours) it was at least 6.00; at recombinant human p38α, 8.80.
On to `Cc1ccc(C(=O)Nc2ccon2)cc1-c1cc2cnnc(-c3ccc(F)cc3Cl)c2n(C)c1=O` [Example 21, 3-(8-(2-chloro-4-fluorophenyl)-1-methyl-2-oxo-1,2-dihydropyrido[2,3-d]pyridazin-3-yl)-N-3-isoxazolyl-4-methylbenzamide], for which the pIC50 was at least 6.00 in assay [1] (setting [3]); at least 6.00 in assay [2] (LPS 100 ng/mL, 18 hours); 9.10 on recombinant human p38α.

Values taken from patent publication US8455495B2, “Pyridazino-pyridinone compounds and methods of use” (Amgen Inc., priority 2008, dated 2013).
